Here are results for 4 compounds from ChEMBL document CHEMBL5113416, “Glycosylation increases the anti-QS as well as anti-biofilm and anti-adhesion ability of the cyclo (L-Trp-L-Ser) against Pseudomonas aeruginosa” (Eur J Med Chem, 2022).

The source made the active and inactive calls. No cut-off for these calls is given here.

Data set [1] is described as follows: Inhibition of quorum sensing system in Pseudomonas aeruginosa PAO1 assessed as downregulation of lasR gene expression at 200 uM by qRT-PCR analysis.
In data set [2] the test system is Pseudomonas aeruginosa. Briefly: Anti-adhesion activity against Pseudomonas aeruginosa PAO1 to human A549 cells assessed as decrease in cell adhesion ability at 200 uM incubated for 3 hrs by DAPI staining based confocal microscopy. The class given is functional.
A short description of data set [3]: Inhibition of quorum sensing system in Pseudomonas aeruginosa PAO1 assessed as decrease of pyocyanin production at 10 to 200 uM for 18 hrs by microplate reader analysis. Conditions: dose 10-200 µM.
The test system of data set [4] is Pseudomonas aeruginosa. Briefly: Antibiofilm activity against Pseudomonas aeruginosa PAO1 assessed as inhibition of biofilm formation incubated for 24 hrs in presence of CaCl2 by crystal violet staining based microscopic analysis. The format is functional, organism-based. Conditions: PAO1, 24 h.
In data set [5] the test system is Pseudomonas aeruginosa. Briefly: Anti-adhesion activity against Pseudomonas aeruginosa PAO1 assessed as inhibition of adhesion ability at 200 uM incubated for 3 hrs using glass as substrate by colony-counting method. The format is functional.
The nature of data set [6]: Inhibition of quorum sensing system in Pseudomonas aeruginosa PAO1 assessed as decrease of pyocyanin production at 200 uM for 18 hrs by microplate reader analysis.
The test system of data set [7] is Pseudomonas aeruginosa. Briefly: Antibiofilm activity against Pseudomonas aeruginosa PAO1 assessed as disruption of preformed biofilm incubated for 4 hrs by crystal violet staining based microscopic analysis. The class given is functional, organism-based. Conditions: PAO1, 4 h.
The test system of data set [8] is Pseudomonas aeruginosa. Nature of the data set: Anti-adhesion activity against Pseudomonas aeruginosa PAO1 assessed as inhibition of adhesion ability incubated for 3 hrs using glass as substrate by colony-counting method. The class given is functional, organism-based. Conditions: PAO1, 3 h.
For data set [9], the system named is Pseudomonas aeruginosa. Briefly: Bactericidal activity against Pseudomonas aeruginosa PAO1 assessed as reduction in bacterial density at 150 ug/ml incubated for 6 hrs by colony-counting method. Details: scale not given: the % may be the effect or the level left. The format is functional. As to conditions: dose 150 µg/ml.
Data set [10] relates to Pseudomonas aeruginosa. Briefly: Anti-adhesion activity against Pseudomonas aeruginosa PAO1 assessed as inhibition of adhesion ability at 50 ug/ml incubated for 3 hrs using glass as substrate by SEM analysis. The class given is functional, organism-based. As to conditions: dose 50.0 µg/ml.
For data set [11], the system named is Pseudomonas aeruginosa. Briefly: Bactericidal activity against Pseudomonas aeruginosa PAO1 assessed as reduction in bacterial density at 150 ug/ml incubated for 1 hrs by colony-counting method. The class given is functional. Details: scale not given: the % may be the effect or the level left. Conditions: dose 150 µg/ml.
For data set [12], the system named is Pseudomonas aeruginosa. Nature of the data set: Anti-adhesion activity against Pseudomonas aeruginosa PAO1 assessed as inhibition of adhesion ability at 50 ug/ml incubated for 3 hrs using glass as substrate by colony-counting method. The format is functional.
The subject of data set [13] is Pseudomonas aeruginosa. Briefly: Antibiofilm activity against Pseudomonas aeruginosa PAO1 assessed as disruption of preformed biofilm at 200 uM incubated for 4 hrs by SEM analysis. The format is functional, organism-based.
Data set [14] has as its target T1, PA-I galactophilic lectin (Pseudomonas aeruginosa (strain ATCC 15692 / PAO1 / 1C / PRS 101 / LMG12228), UniProt Q05097).
T1 sequence (Q05097 whole entry): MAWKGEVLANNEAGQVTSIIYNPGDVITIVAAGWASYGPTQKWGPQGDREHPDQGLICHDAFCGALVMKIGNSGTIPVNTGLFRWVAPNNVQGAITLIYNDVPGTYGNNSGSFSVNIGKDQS
Briefly: Binding affinity to Pseudomonas aeruginosa PAO1 LecA assessed as dissociation constant by ITC analysis. Background: Isothermal titration calorimetry measures the heat released or taken up as one component is titrated into another.

Data set [15] in a line: Toxicity in sheep red blood cells assessed as induction of hemolysis measured after 4 hr. The class given is cell-based, Ovis aries, Erythrocyte.
Data set [16] deals with Pseudomonas aeruginosa. Briefly: Antibiofilm activity against Pseudomonas aeruginosa PAO1 assessed as inhibition of biofilm formation at 10 to 200 uM incubated for 24 hrs in presence of CaCl2 by crystal violet staining based microscopic analysis. The format is functional, organism-based. As to conditions: dose 10-200 µM.
Data set [17] has as its system Pseudomonas aeruginosa. Briefly: Anti-adhesion activity against Pseudomonas aeruginosa PAO1 assessed as inhibition of adhesion ability at 200 uM incubated for 3 hrs using glass as substrate by SEM analysis. The class given is functional, organism-based.
Data set [18] concerns the target Elastase (Pseudomonas aeruginosa (strain ATCC 15692 / PAO1 / 1C / PRS 101 / LMG12228)) (UniProt P14756). Nature of the data set: Inhibition of Pseudomonas aeruginosa PAO1 elastase activity at 10 to 200 uM for 18 hrs by elastin Congo red based microplate reader analysis. Conditions: dose 10-200 µM.
The subject of data set [19] is Pseudomonas aeruginosa. Nature of the data set: Antibiofilm activity against Pseudomonas aeruginosa PAO1 assessed as inhibition of biofilm formation at 200 uM incubated for 24 hrs in presence of CaCl2 by crystal violet staining based microscopic analysis. The format is functional.
Data set [20] concerns A549. Briefly: Cytotoxicity against human A549 cells assessed as reduction in cell viability at 2 mM incubated for 24 hrs by MTT assay. The format is toxicity, cell-based. As to conditions: a549, 24 h, 2000 µM. In general terms: Tetrazolium dyes change colour on reduction, which living cells bring about.
Data set [21] deals with Pseudomonas aeruginosa. Nature of the data set: Antibiofilm activity against Pseudomonas aeruginosa PAO1 assessed as inhibition of swarming motility at 200 uM for 18 hrs by motility assay. The class given is functional, organism-based.
Data set [22] deals with Pseudomonas aeruginosa. Nature of the data set: Synergistic bactericidal activity against Pseudomonas aeruginosa PAO1 assessed as reduction in bacterial density at 200 uM incubated for 1 hrs in presence of azithromycin by colony-counting method. The format is functional. Details: scale not given: the % may be the effect or the level left.
The test system of data set [23] is Pseudomonas aeruginosa. Briefly: Antibiofilm activity against Pseudomonas aeruginosa PAO1 assessed as disruption of preformed biofilm at 200 uM incubated for 4 hrs by Confocal microscopic analysis. The class given is functional, organism-based.
Data set [24] concerns Pseudomonas aeruginosa. Briefly: Antibiofilm activity against Pseudomonas aeruginosa PAO1 assessed as disruption of preformed biofilm at 200 uM incubated for 4 hrs by crystal violet staining based microscopic analysis. The format is functional.
Data set [25] is described as follows: Inhibition of quorum sensing system in Pseudomonas aeruginosa PAO1 assessed as downregulation of […] gene expression at 200 uM by qRT-PCR analysis. Background: Real-time PCR tracks product formation cycle by cycle.
Data set [26] is described as follows: Toxicity in sheep red blood cells assessed as induction of hemolysis at 200 uM for 4 hr. As to conditions: erythrocyte. The class given is cell-based, Ovis aries.
A short description of data set [27]: Stability of the compound in rabbit plasma assessed as retention rate at 200 to 1000 uM and measured upto 24 hrs by HPLC analysis. The class given is ADME, cell-free, Oryctolagus cuniculus. Conditions: dose 200-1000 µM, read-out: Stability.
Data set [28] deals with Pseudomonas aeruginosa. Nature of the data set: Synergistic bactericidal activity against Pseudomonas aeruginosa PAO1 assessed as reduction in bacterial density at 200 uM incubated for 6 hrs in presence of azithromycin by colony-counting method. The format is functional. Details: scale not given: the % may be the effect or the level left.
Data set [29] can be described thus: Inhibition of quorum sensing system in Pseudomonas aeruginosa PAO1 assessed as downregulation of rhlR gene expression at 200 uM by qRT-PCR analysis.

Chain of Elastase (Pseudomonas aeruginosa (strain ATCC 15692 / PAO1 / 1C / PRS 101 / LMG12228)) (P14756 198-498 limits assumed): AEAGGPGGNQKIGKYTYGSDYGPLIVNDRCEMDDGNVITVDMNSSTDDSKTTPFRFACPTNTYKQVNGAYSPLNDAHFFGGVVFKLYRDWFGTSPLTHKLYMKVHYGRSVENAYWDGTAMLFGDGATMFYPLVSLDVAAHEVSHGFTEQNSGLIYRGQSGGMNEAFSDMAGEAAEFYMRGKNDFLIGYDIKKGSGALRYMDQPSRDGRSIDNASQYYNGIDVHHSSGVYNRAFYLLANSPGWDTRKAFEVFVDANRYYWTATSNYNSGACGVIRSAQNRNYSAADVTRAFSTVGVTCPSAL

In general, inhibition refers to the relative decrease from the control value, in per cent. In general, IC50 refers to the point on the concentration scale where inhibition reaches its midpoint. Usually EC50 stands for the concentration that produces a half-maximal response. For the compound `O=C1N[C@@H](Cc2c[nH]c3ccccc23)C(=O)N[C@H]1CO`, the inhibition in data set [1] was 20%; in data set [6], 35%. Moreover, the result in [2] was Active. Besides, the inhibition entry in data set [3] was “Active”. In addition, the IC50 came to 600 µM in data set [4] and 800 µM in data set [8]. Moreover, in data set [5], the inhibition at 200 µM is 16%. The concentration for a half-maximal effect (EC50) in data set [7] was found to be 800 µM.
Regarding `CC[C@H]1OC(=O)[C@H](C)[C@@H](O[C@H]2C[C@@](C)(OC)[C@@H](O)[C@H](C)O2)[C@H](C)[C@@H](O[C@@H]2O[C@H](C)C[C@H](N(C)C)[C@H]2O)[C@](C)(O)C[C@@H](C)CN(C)[C@H](C)[C@@H](O)[C@]1(C)O` [AZITHROMYCIN], the values for the Activity in [9] and in data set [11] were 27% and 99%, respectively. In addition, the inhibition entry in [10] is “Active”. The inhibition at 50 µg/mL in [12] was determined as 48%.
The term Kd denotes a measure of binding affinity in units of concentration. A word on the HC50: it is the concentration giving 50% haemolysis. `O=C1N[C@@H](Cc2c[nH]c3ccccc23)C(=O)N[C@H]1CO[C@@H]1O[C@H](CO)[C@H](O)[C@H](O)[C@H]1O`: the outcome in [13], in data set [21] and in data set [23] was Active. Besides, in data set [14], the dissociation constant Kd stood at 91.3 µM. For the same compound, the Activity in [2] is 29%; in data set [20], 90%; in data set [22], 81%; in data set [24], 54%; in data set [26], “Non-Toxic”; in data set [28], 7%. The HC50 at 4 h in data set [15] was greater than 10 mM. For the same compound, the inhibition result in data set [3], in data set [16], in data set [17], in data set [18], in data set [25] and in [29] was “Active” throughout. The IC50 in data set [4] was 100 µM; in data set [8], 200 µM. Moreover, the inhibition at 200 µM in [5] was found to be 50%; in data set [19] it was 69%. Moreover, the EC50 in data set [7] came out at 80 µM. The remaining at 24 h, up to 1000 µM in [27] was greater than 70%.
Regarding `O=C1N[C@@H](Cc2c[nH]c3ccccc23)C(=O)N[C@H]1CO[C@@H]1O[C@H](CO)[C@@H](O)[C@H](O)[C@H]1O`, the outcome in data set [13], in data set [2], in [21] and in data set [23] was Active. For the same compound, the 50% haemolytic concentration (HC50) at 4 h in data set [15] was greater than 10 mM. For the same compound, the inhibition entry in data set [3], in data set [18], in data set [25] and in data set [29] was “Active” throughout. Also, the results for the 50% inhibitory concentration (IC50) in data set [4] and in data set [8] were 250 µM and 500 µM, respectively. The inhibition at 200 µM came to 32% in [5] and 44% in data set [19]. For the same compound, the Activity is recorded as 90% in [20]; 73% in data set [22]; 47% in [24]; “Non-Toxic” in [26]; 5% in data set [28]. In addition, the EC50 in data set [7] worked out at 300 µM. Also, the remaining at 24 h, up to 1000 µM in data set [27] is greater than 70%.
